{"source": "patent US20100184807A1", "about": "“Methods to inhibit tumor cell growth by using proton pump inhibitors” (Bio-Quant, Inc., priority 2008, published 2010)", "key": {"[1]": {"test_system": "NK92MI", "experiment": "MTT tumor cell growth assay", "type": "cell-based", "conditions": "NK92MI cells, lansoprazole 1-100 μM, 48 hours", "protocol": "In one study, adherent cells were plated approximately 16-24 hours before the day of the experiment in 180 μl growth media. On the day of the experiment, the plated adherent cells were analyzed and counted and suspension cells were plated in 180 μl growth media. 10× lansoprazole compounds and vehicle was prepared. The 10× lansoprazole compounds were prepared by diluting lansoprazole to final concentrations of 100 μM, 30 μM, 10 μM, 3 μM, and 1 μM. A vehicle was prepared by preparing a solution of PBS, equivalent to the volume used for 10 μM lansoprazole wherein the 1× solution constitutes ˜0.06% PBS. 10 μl of the various 10× lansoprazole solutions and the vehicle were added to the cells. The cells were incubated at 37° C., 5% CO2 for 48 hours. The media was then aspirated. The cell suspension was then spun at 1500 RPM for 10 minutes. The media was slowly removed. 200 μl of MTT solution was added to each well with a concentration of 0.863 mg/ml MTT in the growth media. The cells were incubated at 37° C., 5% CO2 for 4 hours and the medium is then aspirated. The plate containing the cell suspension was then spun at 1500 RPM for 10 minutes. The media was slowly removed using a multichannel pipettor. 100 μl of DMSO was then added to each well. The cells were incubated at 37° C., 5% CO2 for 5 minutes and the absorbance was obtained at 560 nm using a Dynex Opsys MR plate reader. The cells used for this procedure were the following cell lines: IGROV1 (ovarian cancer); OVCAR 8 (ovarian cancer); ES-2 (ovarian cancer); CAOV3 (ovarian cancer); OVCAR5 (ovarian cancer); SUDHL4 (lymphoma); RPMI8226 (myeloma); RPMI6666 (Hodgkin's lymphoma); NC37 (lymphoma); GDM-1 (leukemia); MC/CAR (prostate cancer); DU-145 (prostate cancer), J45-01 (leukemia), MOLT3 (leukemia), HUT78, J-gamma-1 (leukemia), MCF7 […], COL0205 (colon cancer), HL60 CLONE 15 (leukemia), T47D (breast cancer), P116 (intestinal cancer), KU812 (leukemia), SW620 (colon cancer), MK92-M1 (lymphoma), MV-4-11 (leukemia), HS578T (breast cancer), HT29 (colon cancer), HCT 116 (colon cancer), CAKI-1 (kidney cancer), A549 (lung cancer), H460 (lung cancer), A3 (colon cancer), MDA-MB231 […], MALME 3M (melanoma), RXF393 (kidney cancer), RS4.11 (leukemia), PC3 (prostate cancer), OVCAR3 (ovarian cancer), MDA-MB435 (melanoma), HUT102 (lymphoma), HL60 (leukemia), CCRF-CEM (leukemia), HUT78 (lymphoma), 786-O (kidney cancer), ACHN (kidney cancer), A498 (kidney cancer), H226 (lung cancer), H522 (lung cancer), HOP92 (lung cancer), SNB 19 (brain cancer), OVCAR4 (ovarian cancer), H9 (lymphoma), UO-31 (kidney cancer), HH (lymphoma), DAUDI (leukemia), LOXIMVI (melanoma), NAMALWA (lymphoma), EKVX (lung cancer), DOHH2 (lymphoma), SNB75 (brain cancer), SKMEL28 (melanoma), SKMEL5 (melanoma), SKMEL2 (melanoma), M14 (melanoma), UACC 257 (melanoma), H332M (lung cancer), KM12 (colon cancer), HCC2998 (colon cancer), G401 (kidney cancer), RS1184 (lymphoma), MC116 (leukemia), MOLT4 (leukemia), JM1 (liver cancer), HOP-62 (lung cancer), HCT-15 (colon cancer), SF-539 (brain cancer), SF295 (brain cancer), ST486 (lymphoma), U251 (brain cancer), and UACC-62 (melanoma)."}, "[2]": {"test_system": "SF-539 (brain cancer)", "experiment": "MTT tumor cell growth assay", "type": "cell-based", "conditions": "SF-539 cells, lansoprazole 1-100 μM, 48 hours", "protocol": "(§1) In one study, adherent cells were plated approximately 16-24 hours before the day of the experiment in 180 μl growth media. On the day of the experiment, the plated adherent cells were analyzed and counted and suspension cells were plated in 180 μl growth media. 10× lansoprazole compounds and vehicle was prepared. The 10× lansoprazole compounds were prepared by diluting lansoprazole to final concentrations of 100 μM, 30 μM, 10 μM, 3 μM, and 1 μM. A vehicle was prepared by preparing a solution of PBS, equivalent to the volume used for 10 μM lansoprazole wherein the 1× solution constitutes ˜0.06% PBS. 10 μl of the various 10× lansoprazole solutions and the vehicle were added to the cells. The cells were incubated at 37° C., 5% CO2 for 48 hours. The media was then aspirated. The cell suspension was then spun at 1500 RPM for 10 minutes. The media was slowly removed. 200 μl of MTT solution was added to each well with a concentration of 0.863 mg/ml MTT in the growth media. The cells were incubated at 37° C., 5% CO2 for 4 hours and the medium is then aspirated. The plate containing the cell suspension was then spun at 1500 RPM for 10 minutes. The media was slowly removed using a multichannel pipettor. 100 μl of DMSO was then added to each well. The cells were incubated at 37° C., 5% CO2 for 5 minutes and the absorbance was obtained at 560 nm using a Dynex Opsys MR plate reader."}, "[3]": {"test_system": "SF295 (brain cancer)", "experiment": "MTT tumor cell growth assay", "type": "cell-based", "conditions": "SF295 cells, lansoprazole 1-100 μM, 48 hours", "protocol": "as §1"}, "[4]": {"test_system": "SNB19 (brain cancer)", "experiment": "MTT tumor cell growth assay", "type": "cell-based", "conditions": "SNB19 cells, lansoprazole 1-100 μM, 48 hours", "protocol": "as §1"}, "[5]": {"test_system": "U251 (brain cancer)", "experiment": "MTT tumor cell growth assay", "type": "cell-based", "conditions": "U251 cells, lansoprazole 1-100 μM, 48 hours", "protocol": "as §1"}, "[6]": {"test_system": "JR, HepG2, SR Liquid Leukemia, RS1184 B Lymphoma, and G401 rhabdoid tumor cell lines", "experiment": "Xenograft nude mouse model, all tumor lines", "type": "in vivo", "conditions": "subcutaneous xenografts", "protocol": "JR (rhabdomyosarcoma), HepG2 (liver carcinoma), SR Liquid Leukemia (leukemia), RSI 184 B Lymphoma (lymphoma), and G401 rhabdoid (kidney) cancer cells for use in a xenograft mouse model were collected from JR, HepG2, SR Liquid Leukemia, RS1184 B Lymphoma, and G401 rhabdoid tumor cell lines and injected at 5×10^6 cells per nude mouse in a volume of 100 μl subcutaneously. The animals were examined three times weekly to determine the progression of the tumors and determine body weight. Dosing started when tumors reached the ˜75-150 mm^3 size. Animals were randomized and distributed in groups in such a way that mean tumor weights in all groups were within 15% of the mean tumor weight in Group 1 (Control—vehicle group). Upon reaching the ˜75-150 mm^3 target size an effective amount of lansoprazole was administered to the mice in a suspension of PEG300 at a concentration of 100 mg/kg."}}}
{"smiles": "Cc1c(OCC(F)(F)F)ccnc1C[S+]([O-])c1nc2ccccc2[nH]1", "note": "(stereo not shown) [lansoprazole]", "values": [{"measurement": "tumor cell growth reduction", "setting": "[1]", "value": "significant tumor cell growth reduction"}, {"measurement": "tumor cell growth reduction", "setting": "[2]", "value": "significant tumor cell growth reduction"}, {"measurement": "tumor cell growth reduction", "setting": "[3]", "value": "significant tumor cell growth reduction"}, {"measurement": "tumor cell growth reduction", "setting": "[4]", "value": "significant tumor cell growth reduction"}, {"measurement": "tumor cell growth reduction", "setting": "[5]", "value": "significant tumor cell growth reduction"}, {"measurement": "life span of the population", "setting": "[6]; nude mice, 100 mg/kg in PEG300", "value": "extended life span"}, {"measurement": "tumor growth in mice", "setting": "[6]; 100 mg/kg in PEG300, FIGS. 4A-4C and 5A-5C", "value": "effectively reduced tumor growth"}]}
